Test results from PMC11062922 (Nature Chemical Biology, 2023).
Like-named read-outs stand apart in the source and are kept apart here.

What was measured:
BMPR1A = test: Kinobeads competition binding: BMPR1A; set-up: species or system human; settings: target BMPR1A
ACAD11 = target: T1, ACAD11 (Homo sapiens, UniProt Q709F0); test: Kinobeads competition binding: ACAD11; settings: target ACAD11
T1 construct: endogenous in cells
T1 sequence (Q709F0 1-780): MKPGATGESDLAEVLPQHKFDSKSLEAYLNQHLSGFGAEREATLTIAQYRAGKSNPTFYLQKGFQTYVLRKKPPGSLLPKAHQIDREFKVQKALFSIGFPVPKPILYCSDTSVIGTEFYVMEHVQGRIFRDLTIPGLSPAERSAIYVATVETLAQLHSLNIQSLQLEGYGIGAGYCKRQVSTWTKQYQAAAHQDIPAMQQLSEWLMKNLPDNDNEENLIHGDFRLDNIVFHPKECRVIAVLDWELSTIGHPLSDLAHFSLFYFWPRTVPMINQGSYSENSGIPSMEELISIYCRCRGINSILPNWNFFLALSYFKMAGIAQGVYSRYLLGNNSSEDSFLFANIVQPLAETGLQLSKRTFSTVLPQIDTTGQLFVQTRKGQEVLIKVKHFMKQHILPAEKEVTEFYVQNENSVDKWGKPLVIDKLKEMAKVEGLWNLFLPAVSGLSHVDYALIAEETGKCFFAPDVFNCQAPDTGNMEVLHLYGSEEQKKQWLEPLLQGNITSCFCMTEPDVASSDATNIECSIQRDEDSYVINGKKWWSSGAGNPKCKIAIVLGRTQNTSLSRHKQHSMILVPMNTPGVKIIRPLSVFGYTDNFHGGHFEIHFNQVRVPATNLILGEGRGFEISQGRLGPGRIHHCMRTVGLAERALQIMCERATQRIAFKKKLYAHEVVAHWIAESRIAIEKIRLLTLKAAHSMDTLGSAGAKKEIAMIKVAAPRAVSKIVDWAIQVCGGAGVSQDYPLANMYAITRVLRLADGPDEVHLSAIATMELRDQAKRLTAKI
Description: Supplement 41589_2023_1459_MOESM4_ESM.xlsx, sheet "CATDS matrix" | column: ACAD11

MDN1 = test: Kinobeads competition binding: MDN1; set-up: species or system human; settings: target MDN1
AKT2 = target: T2, AKT2 (Homo sapiens, UniProt P31751); test: Kinobeads competition binding: AKT2; settings: target AKT2
T2 construct: endogenous in cells

FLT4 = target: T3, FLT4 (Homo sapiens, UniProt P35916); test: Kinobeads competition binding: FLT4; settings: target FLT4;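 also: share of total target engagement due to this protein at one drug concentration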
T3 construct: endogenous in cells

IRAK3 = test: Kinobeads competition binding: IRAK3; set-up: species or system human; settings: target IRAK3
ADK = test: Kinobeads competition binding: ADK; set-up: species or system human; settings: target ADK;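 also: selectivity score: engagement of this protein divided by summed engagement of all targets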
CSNK1E = target: T4, CSNK1E (Homo sapiens, UniProt P49674); test: Kinobeads competition binding: CSNK1E; settings: target CSNK1E
T4 construct: endogenous in cells

MARK2 = test: Kinobeads competition binding: MARK2; set-up: species or system human; settings: target MARK2
NAT10 = test: Kinobeads competition binding: NAT10; set-up: species or system human; settings: target NAT10
CLK4 = target: T5, CLK4 (Homo sapiens, UniProt Q9HAZ1); test: Kinobeads two-dose competition binding: CLK4; settings: for CATDS: target CLK4;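 as to CATDS: target engagement share of this target among all targets at its Kdapp concentration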
T5 construct: to maximize the representation of endogenous proteins; endogenous in cells

MAP3K2 = test: Kinobeads competition binding: MAP3K2; set-up: species or system human; settings: target MAP3K2
MAPK8 = test: Kinobeads competition binding: MAPK8; set-up: species or system human; settings: target MAPK8
EPHB1 = target: T6, EPHB1 (Homo sapiens, UniProt P54762); test: Kinobeads competition binding: EPHB1; settings: target EPHB1
T6 construct: endogenous in cells
T6 sequence (P54762 18-984): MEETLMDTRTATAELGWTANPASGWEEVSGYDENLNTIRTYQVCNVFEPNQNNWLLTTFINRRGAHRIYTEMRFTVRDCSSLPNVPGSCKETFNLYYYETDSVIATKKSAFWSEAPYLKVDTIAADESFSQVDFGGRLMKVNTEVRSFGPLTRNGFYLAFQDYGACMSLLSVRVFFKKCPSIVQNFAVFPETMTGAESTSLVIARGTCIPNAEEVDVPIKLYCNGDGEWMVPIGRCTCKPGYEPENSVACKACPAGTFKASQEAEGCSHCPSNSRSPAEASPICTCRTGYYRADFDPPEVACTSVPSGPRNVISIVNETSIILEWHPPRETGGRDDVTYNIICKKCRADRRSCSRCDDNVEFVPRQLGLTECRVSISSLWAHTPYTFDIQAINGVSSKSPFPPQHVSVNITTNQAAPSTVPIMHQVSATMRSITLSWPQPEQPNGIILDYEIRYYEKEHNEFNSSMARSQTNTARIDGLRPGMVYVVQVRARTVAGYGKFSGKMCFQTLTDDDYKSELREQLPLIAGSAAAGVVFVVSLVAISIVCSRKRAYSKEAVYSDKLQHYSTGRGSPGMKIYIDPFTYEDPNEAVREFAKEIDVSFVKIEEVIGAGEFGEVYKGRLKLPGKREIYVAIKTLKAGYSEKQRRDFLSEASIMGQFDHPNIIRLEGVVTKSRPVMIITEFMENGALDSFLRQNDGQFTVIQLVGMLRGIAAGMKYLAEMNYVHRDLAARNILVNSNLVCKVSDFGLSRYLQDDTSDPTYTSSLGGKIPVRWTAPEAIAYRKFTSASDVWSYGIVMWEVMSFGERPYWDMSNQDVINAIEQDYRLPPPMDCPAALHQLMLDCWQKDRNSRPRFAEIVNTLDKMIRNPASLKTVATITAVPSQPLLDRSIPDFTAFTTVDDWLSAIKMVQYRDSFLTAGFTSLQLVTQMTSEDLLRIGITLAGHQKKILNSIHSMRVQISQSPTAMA
Description: Supplement 41589_2023_1459_MOESM4_ESM.xlsx, sheet "CATDS matrix" | column: EPHB1

MTHFD1 = test: Kinobeads competition binding: MTHFD1; set-up: species or system human; settings: target MTHFD1;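 also: selectivity score: engagement of this protein divided by summed engagement of all targets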

T4 sequence (P49674 whole entry): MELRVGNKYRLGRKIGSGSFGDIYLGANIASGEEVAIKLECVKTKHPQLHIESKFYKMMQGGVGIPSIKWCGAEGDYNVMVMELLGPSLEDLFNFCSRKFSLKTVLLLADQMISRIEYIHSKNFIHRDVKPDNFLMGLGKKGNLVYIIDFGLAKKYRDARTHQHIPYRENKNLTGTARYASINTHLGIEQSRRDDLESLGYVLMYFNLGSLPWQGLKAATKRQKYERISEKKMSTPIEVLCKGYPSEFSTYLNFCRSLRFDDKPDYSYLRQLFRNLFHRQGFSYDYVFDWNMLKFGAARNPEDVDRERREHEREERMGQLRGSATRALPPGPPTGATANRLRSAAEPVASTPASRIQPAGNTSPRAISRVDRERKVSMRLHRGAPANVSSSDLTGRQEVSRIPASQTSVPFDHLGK
T5 sequence (Q9HAZ1 whole entry): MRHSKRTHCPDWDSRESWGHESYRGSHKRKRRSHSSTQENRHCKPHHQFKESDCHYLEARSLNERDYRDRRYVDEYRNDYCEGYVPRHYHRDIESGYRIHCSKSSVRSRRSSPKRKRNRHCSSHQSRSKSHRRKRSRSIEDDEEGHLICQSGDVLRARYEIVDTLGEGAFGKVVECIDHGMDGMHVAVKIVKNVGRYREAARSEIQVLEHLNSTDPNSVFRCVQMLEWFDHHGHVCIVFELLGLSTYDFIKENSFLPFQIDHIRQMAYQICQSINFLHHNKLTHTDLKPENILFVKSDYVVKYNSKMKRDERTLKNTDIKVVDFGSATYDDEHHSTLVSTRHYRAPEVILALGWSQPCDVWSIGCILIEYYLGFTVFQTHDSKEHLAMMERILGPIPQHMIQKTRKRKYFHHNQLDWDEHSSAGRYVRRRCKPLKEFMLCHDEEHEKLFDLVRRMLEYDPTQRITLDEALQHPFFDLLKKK
T2 sequence (P31751 whole entry): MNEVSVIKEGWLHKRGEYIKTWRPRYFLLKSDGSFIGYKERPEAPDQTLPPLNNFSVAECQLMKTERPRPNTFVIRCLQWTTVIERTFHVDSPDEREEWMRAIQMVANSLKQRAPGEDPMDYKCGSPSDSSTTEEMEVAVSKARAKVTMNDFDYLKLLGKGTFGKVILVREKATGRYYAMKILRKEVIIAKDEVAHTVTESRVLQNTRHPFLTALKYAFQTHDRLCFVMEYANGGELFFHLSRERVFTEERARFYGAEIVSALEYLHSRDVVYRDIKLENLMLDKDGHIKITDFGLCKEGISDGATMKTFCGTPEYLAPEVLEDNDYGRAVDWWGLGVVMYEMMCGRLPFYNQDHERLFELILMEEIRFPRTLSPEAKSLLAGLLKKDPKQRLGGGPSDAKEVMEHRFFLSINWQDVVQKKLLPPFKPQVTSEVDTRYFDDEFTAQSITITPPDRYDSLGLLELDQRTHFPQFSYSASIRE
T3 sequence (P35916 25-1363): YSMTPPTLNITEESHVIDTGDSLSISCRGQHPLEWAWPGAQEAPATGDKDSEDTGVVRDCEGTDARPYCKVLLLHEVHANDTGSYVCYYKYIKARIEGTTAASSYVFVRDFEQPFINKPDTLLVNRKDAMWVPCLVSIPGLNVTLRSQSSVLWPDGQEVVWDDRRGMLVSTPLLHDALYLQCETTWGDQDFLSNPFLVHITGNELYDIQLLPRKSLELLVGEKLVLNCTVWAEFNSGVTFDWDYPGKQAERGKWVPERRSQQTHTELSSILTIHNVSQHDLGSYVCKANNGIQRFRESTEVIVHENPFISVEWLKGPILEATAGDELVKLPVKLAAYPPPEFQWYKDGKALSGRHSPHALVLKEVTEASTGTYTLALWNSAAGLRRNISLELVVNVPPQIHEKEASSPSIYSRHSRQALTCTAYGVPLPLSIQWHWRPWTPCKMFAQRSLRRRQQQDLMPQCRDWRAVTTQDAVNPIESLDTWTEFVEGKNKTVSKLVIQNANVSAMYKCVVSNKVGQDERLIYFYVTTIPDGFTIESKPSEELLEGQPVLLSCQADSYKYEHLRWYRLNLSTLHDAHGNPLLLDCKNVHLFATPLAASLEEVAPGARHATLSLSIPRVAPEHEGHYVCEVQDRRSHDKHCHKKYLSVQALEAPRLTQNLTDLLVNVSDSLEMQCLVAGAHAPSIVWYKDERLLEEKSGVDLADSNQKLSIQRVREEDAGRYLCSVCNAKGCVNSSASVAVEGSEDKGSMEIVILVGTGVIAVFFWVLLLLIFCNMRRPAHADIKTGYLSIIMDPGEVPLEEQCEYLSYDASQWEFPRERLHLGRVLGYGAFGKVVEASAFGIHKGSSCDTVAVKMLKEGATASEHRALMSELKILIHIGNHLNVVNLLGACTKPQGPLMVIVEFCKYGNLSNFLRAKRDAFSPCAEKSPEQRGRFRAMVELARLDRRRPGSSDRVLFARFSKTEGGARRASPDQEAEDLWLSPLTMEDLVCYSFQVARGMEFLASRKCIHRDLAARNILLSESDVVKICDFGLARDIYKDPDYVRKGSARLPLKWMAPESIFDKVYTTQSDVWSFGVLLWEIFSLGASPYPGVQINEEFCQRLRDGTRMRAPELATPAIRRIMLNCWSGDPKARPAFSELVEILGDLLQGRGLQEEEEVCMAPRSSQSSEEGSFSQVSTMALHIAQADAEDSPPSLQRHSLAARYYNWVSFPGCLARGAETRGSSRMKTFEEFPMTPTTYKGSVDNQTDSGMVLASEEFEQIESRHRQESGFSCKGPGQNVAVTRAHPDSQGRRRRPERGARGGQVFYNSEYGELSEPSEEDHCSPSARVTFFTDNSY

Compound	CATDS (BMPR1A)	CATDS (ACAD11)	CATDS (MDN1)	CATDS (AKT2)	CATDS (FLT4)	CATDS (IRAK3)	CATDS (ADK)	CATDS (CSNK1E)	CATDS (MARK2)	CATDS (NAT10)	CATDS (CLK4)	CATDS (MAP3K2)	CATDS (MAPK8)	CATDS (EPHB1)	CATDS (MTHFD1)	potency estimated from few doses (CLK4; Kinobeads two-dose, Drugmatrix - all 2, read-out: apparent Kd CLK4) [nM]	potency estimated from few doses (CLK4; read-out: Lestaurtinib Drugmatrix value, Gene Name CLK4) [nM]
CCc1cc2c(cc1N1CCC(N3CCOCC3)CC1)C(C)(C)c1[nH]c3cc(C#N)ccc3c1C2=O [Alectinib]	0	0	0	0	0	0	0	0	0	0	0	0	0	0	0	–	–
CCN1CCN(Cc2ccc(Nc3ncc(F)c(-c4cc(F)c5nc(C)n(C(C)C)c5c4)n3)nc2)CC1 [Abemaciclib]	0	0	0	0	0	0	0	–	0	0	–	0	0	0	0	–	–
Nc1ncnc2[nH]c(-c3ccccc3)nc12 [AH5015_KCGS]	0	0	0	0	0	0	0	0	0	0	0	0	0	0	0	> 1000	–
N#CC1(c2ccc(NC(=O)c3cccnc3NCc3ccncc3)cc2)CCCC1 [Apatinib]	0	0	0	0	0	0	0	0	0	0	0	0	0	0	0	–	–
C[C@]12O[C@H](C[C@]1(O)CO)n1c3ccccc3c3c4c(c5c6ccccc6n2c5c31)CNC4=O [Lestaurtinib]	–	–	–	–	–	–	–	–	–	–	–	–	–	–	–	–	50.2
CN(C)C/C=C/C(=O)Nc1cc2c(Nc3ccc(F)c(Cl)c3)ncnc2cc1O[C@H]1CCOC1 [Afatinib]	–	0	0	–	–	–	0	0	–	0	0	–	–	0	0	–	–
